Test results as given in PubChem BioAssay (NCI).
Values joined by “and” are separate entries in the source; they are usually repeats but may differ in a detail not shown here. Equal values may be shown once.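 Tested at 5 concentrations; 48 h exposure; 96-well plates; endpoints linearly interpolated, else capped at highest concentration. GI50 = concentration required for 50% inhibition of growth. TGI: total growth inhibition.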

Columns and labels:
Assay in all cases: inhibition of tumour cell growth, NCI panel, 48 h
SNB-19 CNS = tested on: SNB-19 CNS
LOX IMVI melanoma = tested on: LOX IMVI melanoma
MOLT-4 leukemia = tested on: MOLT-4 leukemia
OVCAR-8 ovarian = tested on: OVCAR-8 ovarian
HCT-116 colon = tested on: HCT-116 colon
OVCAR-5 ovarian = tested on: OVCAR-5 ovarian
EKVX NSCLC = tested on: EKVX NSCLC
NCI-H226 lung = tested on: NCI-H226 lung
BT-549 breast = tested on: BT-549 breast
PC-3 prostate = tested on: PC-3 prostate

Structure (SMILES)	TGI (SNB-19 CNS)	TGI (LOX IMVI melanoma) [µM]	TGI (MOLT-4 leukemia) [µM]	TGI (OVCAR-8 ovarian) [µM]	TGI (HCT-116 colon)	TGI (OVCAR-5 ovarian)	TGI (EKVX NSCLC)	TGI (NCI-H226 lung)	GI50 (SNB-19 CNS) [µM]	GI50 (LOX IMVI melanoma)	GI50 (OVCAR-8 ovarian) [µM]	GI50 (HCT-116 colon) [µM]	GI50 (OVCAR-5 ovarian) [µM]	GI50 (BT-549 breast) [µM]	TGI (BT-549 breast) [µM]	GI50 (EKVX NSCLC) [µM]	TGI (PC-3 prostate) [µM]	GI50 (NCI-H226 lung) [µM]
C=CCC1OC(C)(C)Oc2ccc(OCOCCOC)cc21 (configuration not stated)	> 100 µM	> 100	> 100	> 100	> 100 µM	> 100 µM	> 100 µM											
c1ccc(SC2(Sc3ccccc3)CCCC2)cc1	> 100 µM	> 100	> 100	> 100	> 100 µM		> 100 µM											
N=C(c1ccccc1)N(c1ccccc1)c1ccccc1	> 100 µM	> 100		> 100	> 100 µM	> 100 µM	> 100 µM	> 100 µM										
COc1cc2c(cc1O)C=NCC2	> 100 µM		> 100	> 100	> 100 µM	> 100 µM	> 100 µM	> 100 µM										
CCCCCCCCCCCOC(=S)NC(C)C	> 100 µM	30.7	36.2	31.7	31.3 µM	52.5 µM	43.3 µM											
CC1=C([Se]CC(OC(=O)[C@@H](CSSC(C)(C)C)NC(=O)OC(C)(C)C)C(=O)NC(C)(C)C)C(=O)c2ccccc2C1=O (some centres not stated)	1.69 µM	2.79		2.73	1.7 µM	3.24 µM	3.11 µM		0.451	1.47 µM	1.36	0.49	1.73	1.24	2.5	1.51		
CC1CC2C3CC(F)C4=CC(=O)C=CC4(C)C3(F)C(O)CC2(C)C1(O)C(=O)COC(=O)C(C)(C)C (configuration not stated)	> 100 µM	> 100	> 100		> 100 µM	> 100 µM	> 100 µM	> 100 µM										
O=C(O)c1ccccc1Cc1ccco1	> 100 µM		> 100	> 100	> 100 µM	> 100 µM	> 100 µM	> 100 µM										
O=C(c1ccc2ccccc2c1O)N1CCCCC1	> 100 µM	> 100	59.3	> 100	> 100 µM		> 100 µM	> 100 µM									> 100	
O=C(NCCCCCCCCNC(=O)c1cnc2ccccc2n1)c1cnc2ccccc2n1	> 100 µM	> 100	> 100	> 100	> 100 µM	> 100 µM	> 100 µM	> 100 µM										
Nc1nc(CCC(=O)Nc2cccc(C(F)(F)F)c2)cc(-c2cccc3ccccc23)n1	> 100 µM	> 100	> 100	> 100	> 100 µM	> 100 µM	> 100 µM	> 100 µM										
CCOc1ccc(NC(=O)CC2SC(=Nc3ccc(Cl)cc3)NC2=O)cc1 (configuration not stated)	> 100 µM	> 100	> 100	> 100		> 100 µM	> 100 µM	> 100 µM										
CC1=C(C(=O)NCc2ccccc2)C(c2ccc(C3C(C(=O)NCc4ccccc4)=C(C)NC(C)=C3C(=O)NCc3ccccc3)cc2)C(C(=O)NCc2ccccc2)=C(C)N1	29.2 µM		> 100	20.9	10.2 µM	39.9 µM	28.9 µM	33.7 µM										
O=C(O)CN(c1ccccc1)S(=O)(=O)c1ccc(NC(=O)c2ccccc2)cc1	> 100 µM	> 100	> 100	> 100		> 100 µM	> 100 µM											
CC1[C@@H]2[C@@H](C=C3C4CCC5Cc6nc7c(nc6C[C@@]5(C)C4C[C@H](O)[C@]32CO)CC2CCC3C4=C[C@H]5O[C@@]6(O[C@@](C)(CO)C[C@@H]6O)C(C)[C@@]5(O)[C@]4(C)[C@@H](O)CC3[C@]2(C)C7)O[C@]12CCC(C)(C)O2 (some centres not stated)	0.603 µM and > 3.65 µM	> 3.65	0.0161	> 3.65	0.406 µM and 1.42 µM	0.961 µM and 0.108 µM	0.749 µM and 2 µM	0.543 µM and > 3.65 µM	0.0264	0.017 µM and 0.0071 µM	> 3.65		0.00878			0.0119		0.00626
CC[P+](C)(Cc1ccccc1)c1ccccc1 (configuration not stated)	> 100 µM	> 100	> 100	> 100	> 100 µM	> 100 µM	> 100 µM	> 100 µM										
FC(F)(F)C1(Cl)C(c2ccccc2)=C1c1ccccc1	31.9 µM	23.8	> 100	29.1	27.4 µM	31.3 µM	29.9 µM	29.2 µM										
CCC(C)CN1C(=O)NC(C)(Cc2ccccc2)C1=O (configuration not stated)	> 100 µM	> 100		> 100		> 100 µM	> 100 µM	> 100 µM										
